BigSolDB 2.1

Q: Which solubility (mole fraction) (in 1,4-dioxane, 288.15 K) does the source give for `CC(C)[C@H](N)C(=O)O` here?
A: The solubility (mole fraction) was 6.7e-05.

Q: And the solubility (mole fraction) (in 1,4-dioxane, 293.15 K)?
A: The solubility (mole fraction) was 8.7e-05.

Q: And the solubility (mole fraction) (in 1,4-dioxane, 298.15 K)?
A: Its solubility (mole fraction) is 0.000121.

Q: And the solubility (mole fraction) (in 1,4-dioxane, 303.15 K)?
A: Its solubility (mole fraction) is 0.000169.

Q: What about the solubility (mole fraction) (in 1,4-dioxane, 308.15 K) of the same compound?
A: The solubility (mole fraction) was 0.000223.

Q: What about the solubility (mole fraction) (in 1,4-dioxane, 313.15 K) of the same compound?
A: The solubility (mole fraction) was 0.000281.

Q: And the solubility (mole fraction) (in 1,4-dioxane, 318.15 K)?
A: The solubility (mole fraction) was 0.000346.

Q: What about the solubility (mole fraction) (in 1,4-dioxane, 323.15 K) of the same compound?
A: The solubility (mole fraction) was 0.00041.

Q: And the solubility (mole fraction) (in 1,4-dioxane, 328.15 K)?
A: The solubility (mole fraction) was 0.000486.

Q: What about the solubility (mole fraction) (in acetone, 283.15 K) of the same compound?
A: Its solubility (mole fraction) is 3.1e-05.

Q: What about the solubility (mole fraction) (in acetone, 288.15 K) of the same compound?
A: Its solubility (mole fraction) is 4.1e-05.

Q: What about the solubility (mole fraction) (in acetone, 293.15 K) of the same compound?
A: The solubility (mole fraction) was 5.6e-05.

Q: What about the solubility (mole fraction) (in acetone, 298.15 K) of the same compound?
A: Its solubility (mole fraction) is 7.5e-05.

Q: And the solubility (mole fraction) (in acetone, 303.15 K)?
A: Its solubility (mole fraction) is 0.0001.

Q: What about the solubility (mole fraction) (in acetone, 308.15 K) of the same compound?
A: The solubility (mole fraction) was 0.000132.

Q: What about the solubility (mole fraction) (in acetone, 313.15 K) of the same compound?
A: Its solubility (mole fraction) is 0.000171.

Q: And the solubility (mole fraction) (in acetone, 318.15 K)?
A: The solubility (mole fraction) was 0.000216.

Q: What about the solubility (mole fraction) (in acetone, 323.15 K) of the same compound?
A: Its solubility (mole fraction) is 0.000256.

Q: What about the solubility (mole fraction) (in acetonitrile, 283.15 K) of the same compound?
A: The solubility (mole fraction) was 2.4e-05.

Q: What about the solubility (mole fraction) (in acetonitrile, 288.15 K) of the same compound?
A: The solubility (mole fraction) was 3.3e-05.

Q: What about the solubility (mole fraction) (in acetonitrile, 293.15 K) of the same compound?
A: The solubility (mole fraction) was 4.3e-05.

Q: What about the solubility (mole fraction) (in acetonitrile, 298.15 K) of the same compound?
A: The solubility (mole fraction) was 5.6e-05.

Q: What about the solubility (mole fraction) (in acetonitrile, 303.15 K) of the same compound?
A: The solubility (mole fraction) was 6.8e-05.

Q: And the solubility (mole fraction) (in acetonitrile, 308.15 K)?
A: Its solubility (mole fraction) is 8.2e-05.

Q: What about the solubility (mole fraction) (in acetonitrile, 313.15 K) of the same compound?
A: The solubility (mole fraction) was 9.9e-05.

Q: What about the solubility (mole fraction) (in acetonitrile, 318.15 K) of the same compound?
A: The solubility (mole fraction) was 0.000116.

Q: And the solubility (mole fraction) (in acetonitrile, 323.15 K)?
A: Its solubility (mole fraction) is 0.000136.

Q: And the solubility (mole fraction) (in ethanol, 283.15 K)?
A: The solubility (mole fraction) was 0.000254.

Q: And the solubility (mole fraction) (in ethanol, 288.15 K)?
A: The solubility (mole fraction) was 0.00026.

Q: And the solubility (mole fraction) (in ethanol, 293.15 K)?
A: The solubility (mole fraction) was 0.000272.

Q: And the solubility (mole fraction) (in ethanol, 298.15 K)?
A: Its solubility (mole fraction) is 0.000286.

Q: And the solubility (mole fraction) (in ethanol, 303.15 K)?
A: The solubility (mole fraction) was 0.000303.

Q: And the solubility (mole fraction) (in ethanol, 308.15 K)?
A: The solubility (mole fraction) was 0.00032.

Q: What about the solubility (mole fraction) (in ethanol, 313.15 K) of the same compound?
A: Its solubility (mole fraction) is 0.000338.

Q: What about the solubility (mole fraction) (in ethanol, 318.15 K) of the same compound?
A: Its solubility (mole fraction) is 0.000357.

Q: What about the solubility (mole fraction) (in ethanol, 323.15 K) of the same compound?
A: Its solubility (mole fraction) is 0.00038.

Q: What about the solubility (mole fraction) (in ethyl acetate, 283.15 K) of the same compound?
A: The solubility (mole fraction) was 3.1e-05.

Q: And the solubility (mole fraction) (in ethyl acetate, 288.15 K)?
A: The solubility (mole fraction) was 3.7e-05.

Q: And the solubility (mole fraction) (in ethyl acetate, 293.15 K)?
A: The solubility (mole fraction) was 4.6e-05.

Q: And the solubility (mole fraction) (in ethyl acetate, 298.15 K)?
A: Its solubility (mole fraction) is 5.7e-05.

Q: What about the solubility (mole fraction) (in ethyl acetate, 303.15 K) of the same compound?
A: The solubility (mole fraction) was 7.1e-05.

Q: What about the solubility (mole fraction) (in ethyl acetate, 308.15 K) of the same compound?
A: Its solubility (mole fraction) is 8.4e-05.

Q: What about the solubility (mole fraction) (in ethyl acetate, 313.15 K) of the same compound?
A: Its solubility (mole fraction) is 0.0001.

Q: What about the solubility (mole fraction) (in ethyl acetate, 318.15 K) of the same compound?
A: Its solubility (mole fraction) is 0.000119.

Q: What about the solubility (mole fraction) (in ethyl acetate, 323.15 K) of the same compound?
A: The solubility (mole fraction) was 0.000136.

Q: And the solubility (mole fraction) (in isobutanol, 283.15 K)?
A: Its solubility (mole fraction) is 5e-05.

Q: What about the solubility (mole fraction) (in isobutanol, 288.15 K) of the same compound?
A: Its solubility (mole fraction) is 6.1e-05.

Q: And the solubility (mole fraction) (in isobutanol, 293.15 K)?
A: Its solubility (mole fraction) is 7.8e-05.

Q: What about the solubility (mole fraction) (in isobutanol, 298.15 K) of the same compound?
A: Its solubility (mole fraction) is 9.9e-05.

Q: And the solubility (mole fraction) (in isobutanol, 303.15 K)?
A: The solubility (mole fraction) was 0.000123.

Q: And the solubility (mole fraction) (in isobutanol, 308.15 K)?
A: The solubility (mole fraction) was 0.000151.

Q: What about the solubility (mole fraction) (in isobutanol, 313.15 K) of the same compound?
A: The solubility (mole fraction) was 0.000185.

Q: What about the solubility (mole fraction) (in isobutanol, 318.15 K) of the same compound?
A: The solubility (mole fraction) was 0.000218.

Q: And the solubility (mole fraction) (in isobutanol, 323.15 K)?
A: Its solubility (mole fraction) is 0.000258.

Q: And the solubility (mole fraction) (in isopropanol, 283.15 K)?
A: Its solubility (mole fraction) is 1.6e-05.

Q: What about the solubility (mole fraction) (in isopropanol, 288.15 K) of the same compound?
A: Its solubility (mole fraction) is 1.8e-05.

Q: And the solubility (mole fraction) (in isopropanol, 293.15 K)?
A: The solubility (mole fraction) was 2.5e-05.

Q: What about the solubility (mole fraction) (in isopropanol, 298.15 K) of the same compound?
A: The solubility (mole fraction) was 3.2e-05.

Q: And the solubility (mole fraction) (in isopropanol, 303.15 K)?
A: Its solubility (mole fraction) is 4.2e-05.

Q: What about the solubility (mole fraction) (in isopropanol, 308.15 K) of the same compound?
A: The solubility (mole fraction) was 5.6e-05.

Q: What about the solubility (mole fraction) (in isopropanol, 313.15 K) of the same compound?
A: Its solubility (mole fraction) is 7e-05.

Q: What about the solubility (mole fraction) (in isopropanol, 318.15 K) of the same compound?
A: Its solubility (mole fraction) is 9e-05.

Q: And the solubility (mole fraction) (in isopropanol, 323.15 K)?
A: The solubility (mole fraction) was 0.00011.

Q: And the solubility (mole fraction) (in methanol, 283.15 K)?
A: Its solubility (mole fraction) is 0.000585.

Q: What about the solubility (mole fraction) (in methanol, 288.15 K) of the same compound?
A: The solubility (mole fraction) was 0.000601.

Q: What about the solubility (mole fraction) (in methanol, 293.15 K) of the same compound?
A: Its solubility (mole fraction) is 0.000624.

Q: And the solubility (mole fraction) (in methanol, 298.15 K)?
A: Its solubility (mole fraction) is 0.000652.

Q: What about the solubility (mole fraction) (in methanol, 303.15 K) of the same compound?
A: The solubility (mole fraction) was 0.000684.

Q: What about the solubility (mole fraction) (in methanol, 308.15 K) of the same compound?
A: The solubility (mole fraction) was 0.000717.

Q: And the solubility (mole fraction) (in methanol, 313.15 K)?
A: The solubility (mole fraction) was 0.000754.

Q: And the solubility (mole fraction) (in methanol, 318.15 K)?
A: Its solubility (mole fraction) is 0.000792.

Q: What about the solubility (mole fraction) (in methanol, 323.15 K) of the same compound?
A: The solubility (mole fraction) was 0.000834.

Q: What about the solubility (mole fraction) (in methyl acetate, 283.15 K) of the same compound?
A: Its solubility (mole fraction) is 3e-05.

Q: What about the solubility (mole fraction) (in methyl acetate, 288.15 K) of the same compound?
A: Its solubility (mole fraction) is 3.2e-05.

Q: And the solubility (mole fraction) (in methyl acetate, 293.15 K)?
A: Its solubility (mole fraction) is 3.4e-05.

Q: And the solubility (mole fraction) (in methyl acetate, 298.15 K)?
A: The solubility (mole fraction) was 3.6e-05.

Q: And the solubility (mole fraction) (in methyl acetate, 303.15 K)?
A: The solubility (mole fraction) was 4.2e-05.

Q: And the solubility (mole fraction) (in methyl acetate, 308.15 K)?
A: Its solubility (mole fraction) is 5.1e-05.

Q: And the solubility (mole fraction) (in methyl acetate, 313.15 K)?
A: Its solubility (mole fraction) is 6.7e-05.

Q: What about the solubility (mole fraction) (in methyl acetate, 318.15 K) of the same compound?
A: Its solubility (mole fraction) is 8.8e-05.

Q: What about the solubility (mole fraction) (in methyl acetate, 323.15 K) of the same compound?
A: Its solubility (mole fraction) is 0.000115.

Q: What about the solubility (mole fraction) (in n-butanol, 283.15 K) of the same compound?
A: Its solubility (mole fraction) is 2.4e-05.

Q: And the solubility (mole fraction) (in n-butanol, 288.15 K)?
A: Its solubility (mole fraction) is 3.1e-05.

Q: And the solubility (mole fraction) (in n-butanol, 293.15 K)?
A: The solubility (mole fraction) was 4.7e-05.

Q: And the solubility (mole fraction) (in n-butanol, 298.15 K)?
A: The solubility (mole fraction) was 6.9e-05.

Q: What about the solubility (mole fraction) (in n-butanol, 303.15 K) of the same compound?
A: Its solubility (mole fraction) is 9.1e-05.

Q: And the solubility (mole fraction) (in n-butanol, 308.15 K)?
A: Its solubility (mole fraction) is 0.000115.

Q: And the solubility (mole fraction) (in n-butanol, 313.15 K)?
A: The solubility (mole fraction) was 0.000139.

Q: And the solubility (mole fraction) (in n-butanol, 318.15 K)?
A: Its solubility (mole fraction) is 0.00017.

Q: What about the solubility (mole fraction) (in n-butanol, 323.15 K) of the same compound?
A: The solubility (mole fraction) was 0.000203.

Q: What about the solubility (mole fraction) (in n-propanol, 283.15 K) of the same compound?
A: Its solubility (mole fraction) is 1.5e-05.

Q: And the solubility (mole fraction) (in n-propanol, 288.15 K)?
A: Its solubility (mole fraction) is 1.9e-05.

Q: And the solubility (mole fraction) (in n-propanol, 293.15 K)?
A: Its solubility (mole fraction) is 2.3e-05.

Q: What about the solubility (mole fraction) (in n-propanol, 298.15 K) of the same compound?
A: Its solubility (mole fraction) is 3e-05.

Q: And the solubility (mole fraction) (in n-propanol, 303.15 K)?
A: The solubility (mole fraction) was 3.7e-05.

Q: And the solubility (mole fraction) (in n-propanol, 308.15 K)?
A: Its solubility (mole fraction) is 4.6e-05.

Q: What about the solubility (mole fraction) (in n-propanol, 313.15 K) of the same compound?
A: The solubility (mole fraction) was 5.5e-05.

Q: And the solubility (mole fraction) (in n-propanol, 318.15 K)?
A: Its solubility (mole fraction) is 6.4e-05.

Q: And the solubility (mole fraction) (in n-propanol, 323.15 K)?
A: The solubility (mole fraction) was 7.7e-05.

Q: And the solubility (mole fraction) (in water, 283.15 K)?
A: The solubility (mole fraction) was 0.00915.

Q: And the solubility (mole fraction) (in water, 288.15 K)?
A: The solubility (mole fraction) was 0.00921.

Q: What about the solubility (mole fraction) (in water, 293.15 K) of the same compound?
A: The solubility (mole fraction) was 0.00937.

Q: What about the solubility (mole fraction) (in water, 298.15 K) of the same compound?
A: Its solubility (mole fraction) is 0.00954.

Q: What about the solubility (mole fraction) (in water, 303.15 K) of the same compound?
A: Its solubility (mole fraction) is 0.00976.

Q: What about the solubility (mole fraction) (in water, 308.15 K) of the same compound?
A: Its solubility (mole fraction) is 0.00998.

Q: And the solubility (mole fraction) (in water, 313.15 K)?
A: Its solubility (mole fraction) is 0.0102.

Q: And the solubility (mole fraction) (in water, 318.15 K)?
A: The solubility (mole fraction) was 0.0105.

Q: What about the solubility (mole fraction) (in water, 323.15 K) of the same compound?
A: Its solubility (mole fraction) is 0.0108.
